Here are results for 12 compounds from patent US8519188B2, “Compounds which can be used for the treatment of cancers” (Marc-Henry Pitty, priority 2008, dated 2013).

Where a SMILES comes first, the peptide text is derived from it. [ ]: non-standard residue; d: D form. The star is where a group is joined. ξ: configuration not given here. ξV = CC(C)C(N)C(=O)O; BrAc = O=C(CBr)* A value given as a limit tells only on which side of the number the result lay.

The subject of data set [1] is MCF-7 breast cancer cell line. The data set is described as follows: Cell proliferation (CellTiter 96 AQueous MTS/PMS), MCF-7. The format is cell-based. The settings on record: MCF7; for IC50: Homo sapiens, MCF-7, 72 hours of incubation, concentration that induces the death of 50% of the cells, read-out: CI50 for various cell lines (nM) MCF-7.
Data set [2] relates to MCF-7/adr adriamycin-resistant breast cancer cell line. As to the kind of experiment: Cell proliferation (CellTiter 96 AQueous MTS/PMS), MCF-7/adr. The class given is cell-based. The settings on record: for IC50: Homo sapiens, NCI/ADR-RES, MCF-7/adr, 72 hours of incubation, concentration that induces the death of 50% of the cells, read-out: CI50 for various cell lines (nM) MCF-7/adr.

For data set [3], the system named is HL-60 acute promyelocytic leukaemia cell line. As to the kind of experiment: Cell proliferation (CellTiter 96 AQueous MTS/PMS), HL-60. The format is cell-based, human. The conditions noted are these: for IC50: Homo sapiens, HL-60, 72 hours of incubation, read-out: CI50 for various cell lines (nM) HL-60. The method, then: (§1) The effects of the compounds of the invention on the proliferation of cancer cells were studied on various human cancer cell lines of various tissue origins (MCF-7: breast cancer, MCF-7/adr adriamycin-resistant breast cancer, ARH-77: myeloma, ARH-77/Dox: doxorubicin (other name for adriamycin)-resistant myeloma, HL-60: acute promyelocytic leukaemia, HL-60/R10: doxorubicin-resistant acute promyelocytic leukaemia). The cancer cells used for this study were incubated at 37° C. in the presence of one of the compounds of the invention added to the culture medium at various concentrations.
(§2) The cancer cell lines originate from the ATCC (American Type Culture Collection) in the case of MCF-7, ARH-77 and HL-60, from Pharmacell (Paris, France) for HL-60/R10, from Oncodesign (Dijon, France) for ARH-77/Dox and from the Pitié Salpetrière Hospital for MCF-7/adr. They were cultivated in a RPMI 1640 medium containing 2 mM L-glutamine and supplemented with 10% foetal calf serum. All the cell lines were maintained in culture at 37° C. in a moist atmosphere containing 5% CO2. Cell proliferation was evaluated using the “CellTiter 96® AQueous” reagent (Promega, Wis., USA) while adhering to the manufacturer's instructions. The cells were seeded in 96-well culture plates in a proportion of from 5,000 to 10,000 cells per well in 200 μl of culture medium. After 24 hours of preincubation at 37° C., the compounds of the invention dissolved in dimethyl sulphoxide (DMSO) were added individually to each of the wells in a proportion of 2 μl per well. After 72 hours of incubation at 37° C. in a moist atmosphere containing 5% CO2, 40 μL of a MTS/PMS ([3-(4,5-dimethylthiazol-2-yl)-5-(3-carboxymethoxyphenyl)-2-(4-sulphophenyl)-2H-tetrazolium phenazine methosulphate) solution were added to each well.

The subject of data set [4] is HL-60/R10 doxorubicin-resistant acute promyelocytic leukaemia cell line. The data set is described as follows: Cell proliferation (CellTiter 96 AQueous MTS/PMS), HL-60/R10. The class given is cell-based, human. The settings on record: for IC50: Homo sapiens, HL-60/R10, 72 hours of incubation, read-out: CI50 for various cell lines (nM) HL-60/R10. The method, then:
as §1, §2

In data set [5] the test system is ARH-77/Dox doxorubicin-resistant myeloma cell line. The data set is described as follows: Cell proliferation (CellTiter 96 AQueous MTS/PMS), ARH-77/Dox. The format is cell-based. The settings on record: Homo sapiens, 72 hours of incubation, read-out: CI50 for various cell lines (nM) ARH-77/Dox. The method, then:
as §1, §2

The subject of data set [6] is ARH-77 myeloma cell line. The data set is described as follows: Cell proliferation (CellTiter 96 AQueous MTS/PMS), ARH-77. The class given is cell-based. The conditions noted are these: Homo sapiens, 72 hours of incubation, read-out: CI50 for various cell lines (nM) ARH-77. The protocol:
as §1, §2

As to `CC(C)C(NC(=O)CBr)C(=O)NCC(=O)O` (centres unmarked) [BADLG, reference compound] (BrAc-[ξV]-Gly-OH), the “cytotoxic activity (concentration at which detected)” value is ≥ 10 µM in data set [1] (no cytotoxic activity detected for concentrations below 10 μM, same conditions as above); ≥ 10 µM in data set [2] (MCF7/adr, no cytotoxic activity detected for concentrations below 10 μM, same conditions as above); ≥ 10 µM in data set [3] (HL60, no cytotoxic activity detected for concentrations below 10 μM, same conditions as above); ≥ 10 µM in data set [4] (HL60/R10, no cytotoxic activity detected for concentrations below 10 μM, same conditions as above).

For `C#CC(=O)N(c1cccc(C(F)(F)F)c1)C(C(=O)NCc1ccccc1)c1cccs1` (centres unmarked) [Compound 1, Propynoic Acid (benzylcarbamoylthiophen-2-yl-methyl)-(3-trifluoromethylphenyl)amide], the IC50 in data set [1] was determined as 224 nM; in data set [5], 12 nM; in data set [6], 46 nM; in data set [2] it was 1.6 nM; in data set [3] it was 1340 nM; in data set [4] it was 32 nM.

As for `C#CC(=O)N(c1ccc(C(F)(F)F)cc1)C(C(=O)NCc1ccccc1)c1cccs1` (centres unmarked) [Compound 4, Propynoic Acid (benzylcarbamoylthiophen-2-yl-methyl)-(4-trifluoromethylphenyl)amide], the IC50 in data set [5] was 25 nM; in data set [6], 103 nM; in data set [2], 0.9 nM; in data set [3] it was 1630 nM; in data set [4], 76 nM.

On to `C#CC(=O)N(c1cccc(C(F)(F)F)c1)C(C(=O)NCc1ccccc1)c1ccc(C)s1` (centres unmarked) [Compound 21, Propynoic Acid [benzylcarbamoyl-(5-methylthiophen-2-yl)-methyl]-(3-trifluoromethylphenyl)amide], for which the IC50 in data set [5] worked out at 6 nM; in data set [6], 60 nM; in data set [3], 2020 nM; in data set [4], 43 nM.

As for `COc1ccc(CNC(=O)C(C)(C)N(C(=O)CCl)c2ccc(F)cc2)cc1` [Compound 186, 2-[(2-Chloro-acetyl)-(4-fluoro-phenyl)-amino]-N-(4-methoxy-benzyl)-2-methyl-propionamide], the IC50 was found to be 362 nM in data set [3] and 78 nM in data set [4].

Take `Cc1c(Cl)cccc1N(C(=O)CCl)C(C)(C)C(=O)NCc1ccc(F)cc1` [Compound 188, 2-[(2-Chloro-acetyl)-(3-chloro-2-methyl-phenyl)-amino]-N-(4-fluoro-benzyl)-2-methyl-propionamide]: the IC50 was determined as 2500 nM in data set [3] and 176 nM in data set [4].

As to `CC(C)c1ccc(N(C(=O)CCl)C(C(=O)NC2CCCCC2)c2ccc(OCCCN3CCN(C)CC3)cc2)c(F)c1` (centres unmarked) [Compound 192, 2-[(2-Chloro-acetyl)-(2-fluoro-4-isopropyl-phenyl)-amino]-N-cyclohexyl-2-{4-[3-(4-methyl-piperazin-1-yl)-propoxy]-phenyl}-acetamide], the IC50 in data set [3] came out at 524 nM; in data set [4], 140 nM.

In the case of `O=C(C(c1cccs1)N(C(=O)CCl)c1cccc(C(F)(F)F)c1)N1CCN(C2CCCCC2)CC1` (centres unmarked) [Compound 197], the IC50 in data set [1] stood at 1380 nM; in data set [2] it was 37 nM.

In the case of `O=C(OCc1ccccc1)N1CCN(C(=O)C(c2cccs2)N(C(=O)CCl)c2cccc(C(F)(F)F)c2)CC1` (centres unmarked) [Compound 198, 4-{2-[(2-chloro-acetyl)-(3-trifluoromethyl-phenyl)-amino]-2-thiophen-2-yl-acetyl}-piperazine-1-carboxylic acid benzyl ester], the IC50 in data set [1] came to 1080 nM; in data set [2], 55 nM.

Regarding `CC(C)c1cccc(N(C(=O)CCl)C(C(=O)N2CCN(C3CCCCC3)CC2)c2cccs2)c1` (centres unmarked) [Compound 199], the IC50 is 1860 nM in data set [1] and 23 nM in data set [2].

Regarding `CN(C(=O)N1CCN(C(=O)C(c2cccs2)N(C(=O)CCl)c2cccc(C(F)(F)F)c2)CC1)c1ccccc1` (centres unmarked) [Compound 204, 4-{2-[(2-Chloroacetyl)-(3-trifluoromethylphenyl)-amino]-2-thiophen-2-yl-acetyl}piperazine-1-carboxylic acid methylphenyl-amide], the values for the IC50 in data set [1] and in data set [2] were 741 nM and 89 nM, respectively.

For the compound `O=C(OCc1ccccc1)N1CCN(C(=O)C(c2cccs2)N(C(=O)CCl)c2ccc(Oc3ccccc3)cc2)CC1` (centres unmarked) [Compound 206], the IC50 was determined as 2500 nM in data set [1] and 38 nM in data set [2].
